Results from patent US11554182B2, “Macrocyclic complexes of alpha-emitting radionuclides and their use in targeted radiotherapy of cancer” (CORNELL UNIVERSITY, priority 2017, dated 2023).

Assay: In vivo biodistribution of ^225Ac complexes after intravenous injection
Design: species or system C57BL/6 mice
Experimental: In Vivo Biodistribution of ^225Ac Complexes of Macropa and DOTA. All experiments were approved by the Institutional Animal Care Committee (IACC) of the University of British Columbia and were performed in accordance with the Canadian Council on Animal Care Guidelines. A total of 9 female C57BL/6 mice (6-8 weeks old, 20-25 g) were used for the biodistribution study of each radiometal complex, n=3 for each time point.
Macropa (100 μL of a 1 mg/mL solution in NH4OAc) was diluted with 387 μL of NH4OAc (1 M, pH 7), and an aliquot (203 μL) of ^225Ac(NO3)3 (˜157 kBq) was then added; the pH of this solution was adjusted to 6.5-7 by the addition of 1 M NaOH (210 μL, trace metal grade). After 5 min at ambient temperature, the reaction solution was analyzed by TLC (0.4 M pH 4 sodium citrate as the eluent), which confirmed >95% radiochemical yield. The reaction was allowed to proceed overnight, and the radiochemical yield was again confirmed to be >95% the following morning. At this time, mice were anesthetized by 2% isoflurane, and approximately 100 μL (10-15 kBq) of the [^225Ac(macropa)]^+ complex were injected into the tail vein of each mouse. After injection, mice were allowed to recover and roam freely in their cages, and were euthanized by CO2 inhalation at 15 min, 1 h, or 5 h (n=3 at each time point) post-injection. Blood was collected by cardiac puncture and placed into an appropriate test tube for scintillation counting. Tissues collected included heart, liver, kidneys, lungs, small intestine, large intestine, brain, bladder, spleen, stomach, pancreas, bone, thyroid, tail, urine, and feces. Tissues were weighed and then counted with a calibrated gamma counter (Packard, Cobra II model 5002) using three energy windows: 60-120 keV (window A), 180-260 keV (window B), and 400-480 keV (window C). Counting was performed both immediately after sacrifice and after 7 days; counts were decay corrected from the time of injection and then converted to the percentage of injected dose (% ID) per gram of tissue (% ID/g). No differences were noted between the data; therefore, the biodistributions are reported using the data acquired immediately using window A.
The biodistribution studies of [^225Ac(DOTA)]^− and ^225Ac(NO3)3 were carried out as described above for [^225Ac(macropa)]^+, with the following modifications. [^225Ac(DOTA)]^− was prepared by adding ^225Ac(NO3)3 (338 μL, 1.1 MBq) to a solution of DOTA (100 μg, 20 mg/mL in H2O) in NH4OAc (467 μL, 0.15 M, pH 7). The pH of the solution was adjusted to 7 using NH4OAc (150 μL, 1 M, pH 7) and the solution was heated at 85° C. for 45 min. RCY>99% was confirmed by TLC as described above. [^225Ac(DOTA)]^− was diluted with saline to a final concentration of 0.05 MBq/100 μL, and 100 μL were injected into each mouse. ^225Ac(NO3)3 (˜58 μL, 0.4 MBq) was diluted and injected in the same manner as [^225Ac(DOTA)]^−. One mouse that was to be euthanized at the 5 h time point in the [^225Ac(DOTA)]^− study died shortly after injection. In the same manner, one mouse that was to be euthanized at the 1 h time point in the ^225Ac(NO3)3 study died.
The in vivo stability [^225Ac(macropa)]^+ was examined by comparing its biodistribution to those of ^225Ac(NO3)3 and [^225Ac(DOTA)]^−. C57BL/6 mice were injected via tail vein with 10-50 kBq of each radiometal complex and were sacrificed after 15 min, 1 h, or 5 h. The amount of ^225Ac retained in each organ was quantified by gamma counting and reported as the percent of injected dose per gram of tissue (% ID/g). The results of these studies are compiled in Tables 1-3. Inadequate stability of an ^225Ac complex leading to the loss of radioisotope in vivo is manifested by the accumulation of ^225Ac in the liver, spleen, and bone of mice.^[11,12,32] […] The biodistribution profile of [^225Ac(macropa)]^+ (FIG. 3B) differs markedly from that of ^225Ac(NO3)3. […]

[1] = 15 min after i.v. injection, energy window A (60-120 keV)
[2] = 15 min after i.v. injection, energy window B (180-260 keV)
[3] = 15 min after i.v. injection, energy window C (400-480 keV)
[4] = 1 h after i.v. injection, energy window A (60-120 keV)
[5] = 1 h after i.v. injection, energy window B (180-260 keV)

SMILES: O=C([O-])c1cccc(CN2CCOCCOCCN(Cc3cccc(C(=O)[O-])n3)CCOCCOCC2)n1.[225Ac+3] [[^225Ac(macropa)]^+]
- % ID/g in bladder [1]: 46.74 % ID/g
- % ID/g in blood [1]: 5.11 % ID/g
- % ID/g in bone (femur + joint) [1]: 2.52 % ID/g
- % ID/g in brain [1]: 0.26 % ID/g
- % ID/g in feces [1]: 0.91 % ID/g
- % ID/g in heart [1]: 2.19 % ID/g
- % ID/g in kidneys [1]: 27.55 % ID/g
- % ID/g in large intestines [1]: 2.40 % ID/g
- % ID/g in liver [1]: 2.28 % ID/g
- % ID/g in lungs [1]: 5.98 % ID/g
- % ID/g in pancreas [1]: 1.46 % ID/g
- % ID/g in small intestines [1]: 2.64 % ID/g
- % ID/g in spleen [1]: 2.52 % ID/g
- % ID/g in stomach [1]: 2.97 % ID/g
- % ID/g in tail [1]: 8.84 % ID/g
- % ID/g in thyroids [1]: 28.23 % ID/g
- % ID/g in urine [1]: 1378.82 % ID/g
- % ID/g in bladder [2]: 47.64 % ID/g
- % ID/g in blood [2]: 5.23 % ID/g
- % ID/g in bone (femur + joint) [2]: 2.69 % ID/g
- % ID/g in brain [2]: 0.23 % ID/g
- % ID/g in feces [2]: 1.04 % ID/g
- % ID/g in heart [2]: 2.39 % ID/g
- % ID/g in kidneys [2]: 27.86 % ID/g
- % ID/g in large intestines [2]: 2.53 % ID/g
- % ID/g in liver [2]: 2.17 % ID/g
- % ID/g in lungs [2]: 5.83 % ID/g
- % ID/g in pancreas [2]: 1.63 % ID/g
- % ID/g in small intestines [2]: 2.59 % ID/g
- % ID/g in spleen [2]: 2.55 % ID/g
- % ID/g in stomach [2]: 3.29 % ID/g
- % ID/g in tail [2]: 9.39 % ID/g
- % ID/g in thyroids [2]: −2.22 % ID/g
- % ID/g in urine [2]: 1541.60 % ID/g
- % ID/g in bladder [3]: 64.68 % ID/g
- % ID/g in blood [3]: 6.49 % ID/g
- % ID/g in bone (femur + joint) [3]: 3.74 % ID/g
- % ID/g in brain [3]: 0.17 % ID/g
- % ID/g in feces [3]: 1.26 % ID/g
- % ID/g in heart [3]: 2.87 % ID/g
- % ID/g in kidneys [3]: 33.46 % ID/g
- % ID/g in large intestines [3]: 3.02 % ID/g
- % ID/g in liver [3]: 2.72 % ID/g
- % ID/g in lungs [3]: 7.55 % ID/g
- % ID/g in pancreas [3]: 3.00 % ID/g
- % ID/g in small intestines [3]: 3.46 % ID/g
- % ID/g in spleen [3]: 3.79 % ID/g
- % ID/g in stomach [3]: 3.45 % ID/g
- % ID/g in tail [3]: 11.75 % ID/g
- % ID/g in thyroids [3]: −6.46 % ID/g
- % ID/g in urine [3]: 2387.66 % ID/g
- % ID/g in bladder [4]: 6.23 % ID/g
- % ID/g in blood [4]: 0.40 % ID/g
- % ID/g in bone (femur + joint) [4]: 0.31 % ID/g
- % ID/g in brain [4]: 0.12 % ID/g
- % ID/g in feces [4]: 0.28 % ID/g
- % ID/g in heart [4]: 0.31 % ID/g
- % ID/g in kidneys [4]: 13.36 % ID/g
- % ID/g in large intestines [4]: 0.36 % ID/g
- % ID/g in liver [4]: 0.75 % ID/g
- % ID/g in lungs [4]: 0.51 % ID/g
- % ID/g in pancreas [4]: 0.19 % ID/g
- % ID/g in small intestines [4]: 1.10 % ID/g
- % ID/g in spleen [4]: 0.51 % ID/g
- % ID/g in stomach [4]: 0.41 % ID/g
- % ID/g in tail [4]: 1.82 % ID/g
- % ID/g in thyroids [4]: 3.18 % ID/g
- % ID/g in urine [4]: 489.11 % ID/g
- % ID/g in bladder [5]: 5.92 % ID/g
- % ID/g in blood [5]: 0.39 % ID/g
- % ID/g in bone (femur + joint) [5]: 0.17 % ID/g
- % ID/g in brain [5]: 0.12 % ID/g
- % ID/g in feces [5]: 0.27 % ID/g
- % ID/g in heart [5]: 0.20 % ID/g
- % ID/g in kidneys [5]: 12.97 % ID/g
- % ID/g in large intestines [5]: 0.22 % ID/g
- % ID/g in liver [5]: 0.70 % ID/g
- % ID/g in lungs [5]: 0.54 % ID/g
